We go through twelve compounds from patent US20240368232A1, “ANTIVIRAL LARAZOTIDE DERIVATIVES” (priority 2021, published 2024).

The target in one series is M^pro enzyme (Severe acute respiratory syndrome coronavirus 2, UniProt P0DTD1). Conditions: MM-GBSA, literature Di Micco et al. 2021; cited from earlier work.
Series [1] concerns TK^− VZV strain 07-1. The conditions noted are these: read-out: Antiviral activity EC50 TK^− VZV strain 07-1.; VZV in HEL cells; plaque formation reduced by 50%; 20 PFU.
The next series in a line: in vitro. The conditions noted are these: African green monkey.
Series [2] has as its system TK^+ VZV strain OKA. The conditions noted are these: read-out: Antiviral activity EC50 TK^+ VZV strain OKA; VZV in HEL cells; plaque formation reduced by 50%; 20 PFU.
The subject of series [3] is human embryonic lung (HEL) cells. In words: Cytotoxicity, cell morphology (MCC), HEL cells. The class given is cell-based.
Series [4] deals with T1, SARS-COV-2 M^pro (3264-3569aa) (Severe acute respiratory syndrome coronavirus 2, UniProt P0DTD1).
T1 construct: SARS-COV-2 M^pro (3264-3569aa); purchased Proteros WTH_20_1
Nature of the series: FRET assay for TRIP on SARS-COV-2 main protease. The class given is biochemical.

The subject of series [5] is cytomegalovirus (HCMV) AD-169 strain. Conditions: read-out: Antiviral activity EC50 AD-169 strain; HCMV in HEL cells; plaque formation reduced by 50%; 100 PFU.
Series [6] deals with cytomegalovirus (HCMV) Davis strain. The conditions noted are these: read-out: Antiviral activity EC50 Davis strain; HCMV in HEL cells; plaque formation reduced by 50%; 100 PFU.
The test system of series [7] is TK^+ VZV strain OKA. Nature of the series: microbe, parasite or virus in culture. The conditions noted are these: Human alphaherpesvirus 3, HEL, read-out: Antiviral activity EC50 TK^+ VZV strain OKA, VZV in HEL cells; plaque formation reduced by 50%; 20 PFU.
Series [8] deals with TK^− VZV strain 07-1. In words: microbe, parasite or virus in culture. The conditions noted are these: Human alphaherpesvirus 3, HEL, read-out: Antiviral activity EC50 TK^− VZV strain 07-1., VZV in HEL cells; plaque formation reduced by 50%; 20 PFU.
For series [9], the system named is SARS-COV-2 1074 # 2 strain. Nature of the series: microbe, parasite or virus in culture. The conditions noted are these: Severe acute respiratory syndrome coronavirus 2, Vero, read-out: Antiviral activity EC50 1074 # 2 strain Vero cells.
Series [10] has as its system Vero cells.
For series [11], the system named is SARS-COV-2 UK (NVDBB) strain. In words: microbe, parasite or virus in culture. Conditions: Severe acute respiratory syndrome coronavirus 2, Vero, read-out: Antiviral activity EC50 UK (NVDBB) strain Vero cells.
Series [12] relates to SARS-COV-2 1074 # 2 strain.
Series [13] concerns cytomegalovirus (HCMV) AD-169 strain. In words: microbe, parasite or virus in culture. Conditions: Human betaherpesvirus 5, AD169, HEL, read-out: Antiviral activity EC50 AD-169 strain, HCMV in HEL cells; plaque formation reduced by 50%; 100 PFU.
For series [14], the system named is Vero cells. The format is cell-based.
The test system of series [15] is SARS-COV-2 UK (NVDBB) strain.

Values joined by “and” are separate entries in the source; they are usually repeats but may differ in a detail not shown here. Equal values may be shown once. Read-outs that look alike come from different tables or passages of the source. Square brackets hold non-standard residues; d marks the D form. Peptide text beside a SMILES is read from it. * marks the point of attachment. ξ: configuration not given here. ξTic = O=C(O)C1Cc2ccccc2CN1; ξY = NC(Cc1ccc(O)cc1)C(=O)O; Heptanoyl = CCCCCCC(=O)*; Boc = CC(C)(C)OC(=O)*

With larazotide acetate [AT1001 acetate], at M^pro enzyme, the “docking in the catalytic domain of the M^pro enzyme” value was “docks extremely well”.

As to `CC(=O)NCC(=O)N[C@H](Cc1ccccc1)C(=O)N[C@H](C=O)Cc1c[nH]cn1` [TRIP 5] (Ac-Gly-[dF]-His-aldehyde), the EC50 in the series on TK^− VZV strain 07-1 [1] was greater than 100 µM; in the series with TK^+ VZV strain OKA [2], greater than 100 µM; in series [5], greater than 20 µM; in [6], greater than 100 µM. Besides, in “in vitro”, the CC50 was greater than 100 µM. Further, the “Cytotoxicity Cell morphology (MCC)” value in series [3] (Table 3 (HCMV experiment)) is recorded as 100 μM; in series [3] (Table 4 (VZV experiment)), greater than 100 μM. It took 2.51 ± 0.24 µM to reach half-maximal inhibition in series [4] (IC50). The same compound showed a Kd in series [4] of 1.26 ± 0.12 µM.

On to `CC(C)(C)OC(=O)NCC(=O)N[C@H](Cc1ccccc1)C(=O)N[C@H](C=O)Cc1c[nH]cn1` [TRIP 43] (Boc-Gly-[dF]-His-aldehyde), for which the concentration giving a half-maximal response (EC50) is greater than 100 µM with TK^− VZV strain 07-1 [1], greater than 100 µM in the series with TK^+ VZV strain OKA [2], greater than 20 µM in [5] and greater than 100 µM in series [6]. Moreover, in “in vitro”, the CC50 was greater than 100 µM. Also, the “Cytotoxicity Cell morphology (MCC)” value in [3] (Table 3 (HCMV experiment)) is 100 μM; in series [3] (Table 4 (VZV experiment)), greater than 100 μM.

In the case of `O=c1[nH]c(=O)n([C@H]2C[C@H](O)[C@@H](CO)O2)cc1/C=C/Br` [Brivudine (BVDU), Brivudine, reference compound], the EC50 in the series on TK^− VZV strain 07-1 [1] was 4.53 µM; in the series with TK^+ VZV strain OKA [2], 0.17 µM; with TK^+ VZV strain OKA [7], 0.27 µM; in the series with TK^− VZV strain 07-1 [8], 5.89 µM. For the same compound, the “Cytotoxicity Cell morphology (MCC)” value in series [3] (Table 4 (VZV experiment)) is listed as greater than 300.3 μM.

As for `CCC(CC)COC(=O)[C@H](C)N[P@](=O)(OC[C@H]1O[C@@](C#N)(c2ccc3c(N)ncnn23)[C@H](O)[C@@H]1O)Oc1ccccc1` [Remdesivir], the CC50 was greater than 80 µM in the series “in vitro” (Cytotoxicity Cell growth (CC50)) and 59.1 µM in the series on Vero cells [10] (African green monkey). Moreover, the figures for the concentration for a half-maximal effect (EC50) in series [9], in series [11] and in series [12] (read-out: Antiviral activity EC50 1074 # 2 strain Vero cells) were 1.01 µM, 0.19 µM and 1.17 µM, respectively.

With `CC(=O)NCC(=O)N[C@@H](Cc1ccccc1)C(=O)N[C@H](Cc1c[nH]cn1)C(=O)NCC=O` [TRIP 42] (Ac-GF[dH]G-aldehyde), the IC50 in series [4] was greater than 425 µM.

As for `Nc1ccn(C[C@@H](CO)OCP(=O)(O)O)c(=O)n1` [Cidofovir (CDV), Cidofovir, reference compound], in [3] (Table 3 (HCMV experiment)), the “Cytotoxicity Cell morphology (MCC)” value stood at 317 μM. Further, the EC50 in series [13] amounted to 1.39 µM; in [5], 1.08 µM.

Regarding `CCCCCCC(=O)NCC(=O)N[C@H](Cc1ccccc1)C(=O)N[C@H](C=O)Cc1c[nH]cn1` [TRIP 44] (Heptanoyl-Gly-[dF]-His-aldehyde), the EC50 with TK^− VZV strain 07-1 [1] is greater than 100 µM; in the series with TK^+ VZV strain OKA [2], greater than 100 µM; in series [5], greater than 20 µM; in [6], greater than 100 µM. Also, the CC50 in “in vitro” is greater than 100 µM. In addition, the “Cytotoxicity Cell morphology (MCC)” value is 100 μM in [3] (Table 3 (HCMV experiment)) and greater than 100 μM in [3] (Table 4 (VZV experiment)).

In the case of `O=CCNC(=O)[C@@H](Cc1c[nH]cn1)NC(=O)[C@H](Cc1c[nH]cn1)NC(=O)C1Cc2ccccc2CN1` (stereo partly drawn) [TRIP 41] (H-[ξTic]H[dH]G-aldehyde), the 50% inhibitory concentration (IC50) in [4] is greater than 425 µM.

For `CC(=O)NCC(=O)NC(Cc1ccc(O)cc1)C(=O)N[C@H](C=O)Cc1c[nH]cn1` (stereo partly drawn) [TRIP 23] (Ac-Gly-[ξY]-His-aldehyde), in [4], the midpoint of inhibition, the IC50, lay at 198 µM.

In [4], `CC(C)C[C@H](C=O)NC(=O)[C@H](Cc1ccccc1)NC(=O)C1Cc2ccccc2CN1` (stereo partly drawn) [TRIP 3] (H-[ξTic]-Phe-[dL]-aldehyde) yielded an IC50 greater than 425 µM.

`NC(=O)c1nc(F)cnc1O` [T-705, reference compound]: the “Cytotoxicity Cell morphology (MCC)” value in the series with Vero cells [14] is on record as greater than 200 μg/ml. Besides, the “Antiviral activity EC50 UK (NVDBB) strain Vero cells” value in series [15] came out at 23.39 µg/mL. Besides, the “Cytotoxicity Cell growth (CC50)” value in the series with Vero cells [10] was greater than 200 µg/mL. Also, the “Antiviral activity EC50 1074 # 2 strain Vero cells” value in series [12] was 76.15 µg/mL and 81.79 µg/mL.
